This assay has as its target full-length recombinant human FYN A (Homo sapiens (Human), UniProt P06241). As to the kind of experiment: ADP-Glo Kinase Assay of FYN kinase inhibition. It is filed as biochemical. Conditions: primary screen, initial compounds. The gist of the method: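 ADP-Glo read-out of peptide phosphorylation after 90 min RT with 12.5 pmol ATP and 100 pg 12-mer substrate. Enzyme was N-GST full-length human FYN A from insect cells, 3 pg, pre-incubated 30 min with compound, 10 points from 10 μM top, 3-fold steps; IC50 from curve.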

Chain of full-length recombinant human FYN A (P06241 whole entry): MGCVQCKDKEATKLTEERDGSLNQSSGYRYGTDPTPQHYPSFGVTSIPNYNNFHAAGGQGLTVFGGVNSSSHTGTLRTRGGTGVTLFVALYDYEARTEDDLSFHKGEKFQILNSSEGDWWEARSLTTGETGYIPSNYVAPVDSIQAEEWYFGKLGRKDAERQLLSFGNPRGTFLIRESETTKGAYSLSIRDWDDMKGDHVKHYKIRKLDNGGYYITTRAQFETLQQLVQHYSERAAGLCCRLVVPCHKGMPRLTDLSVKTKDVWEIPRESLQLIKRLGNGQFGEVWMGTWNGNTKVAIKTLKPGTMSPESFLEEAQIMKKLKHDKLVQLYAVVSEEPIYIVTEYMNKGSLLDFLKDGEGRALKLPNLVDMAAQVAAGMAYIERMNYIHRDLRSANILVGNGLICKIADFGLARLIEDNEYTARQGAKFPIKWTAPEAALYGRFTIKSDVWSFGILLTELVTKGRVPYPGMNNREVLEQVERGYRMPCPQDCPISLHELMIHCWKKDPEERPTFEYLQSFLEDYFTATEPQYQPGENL

`Cc1ccc(Nc2ccn3ncc(-c4cccc(O)c4)c3n2)cc1NS(C)(=O)=O` [294_0123_0284, N-[5-[[3-(3-hydroxyphenyl)pyrazolo[1,5-a]pyrimidin-5-yl]amino]-2-methyl-phenyl]methane-sulfonamide]: the IC50 was determined as 3170 nM.
For `Nc1cccc(-c2cnn3ccc(NCc4cccnc4)nc23)c1` [294_4003_0005, 3-(3-amino-phenyl)-N-(3-pyridylmethyl) pyrazolo[1,5-a]pyrimidin-5-amine] the value was 2510 nM; for `COc1ccc(-c2cnn3ccc(NCc4cccnc4)nc23)cc1OC` [294_4003_0079, 3-(3,4-dimethoxy-phenyl)-N-(3-pyridylmethyl) pyrazolo[1,5-a]pyrimidin-5-amine], 1640 nM.
With `COc1ccccc1-c1cnn2ccc(NCc3cccnc3)nc12` [294_4003_0083, 3-(2-methoxyphenyl)-N-(3-pyridylmethyl) pyrazolo[1,5-a]pyrimidin-5-amine], the IC50 was found to be 1220 nM.
In the case of `COc1cc(-c2cnn3ccc(NCc4cccnc4)nc23)cc(OC)c1OC` [294_4003_0087, N-(3-pyridylmethyl)-3-(3,4,5-trimethoxy-phenyl) pyrazolo[1,5-a]pyrimidin-5-amine] it was 2350 nM; in that of `COc1ccc(-c2cnn3ccc(Nc4ccc(C(C)C)cc4)nc23)cc1` [294_6937_0280, N-(4-isopropylphenyl)-3-(4-methoxyphenyl) pyrazolo[1,5-a]pyrimidin-5-amine], 4180 nM; in that of `COc1cc(-c2cnc(N)c(-c3cccc(N)c3)c2)cc(OC)c1OC` [382_0005_0087, 3-(3-aminophenyl)-5-(3,4,5-trimethoxy-phenyl)pyridin-2-amine], 2970 nM.
`Cc1cc(-c2cnc(N)c(-c3ccncc3)c2)cc(C)c1O` [382_0069_0315, 4-[6-amino-5-(4-pyridyl)-3-pyridyl]-2,6-dimethyl-phenol]: the IC50 turned out to be 1700 nM.
As for `COc1cc(-c2cc(-c3ccc(OCCCN(C)C)nc3)cnc2N)cc(OC)c1OC` [382_0087_0002, 5-[6-[3-(dimethylamino)propoxy]-3-pyridyl]-3-(3,4,5-trimethoxy-phenyl)pyridin-2-amine], the IC50 came out at 530 nM.
For `COc1cc(-c2cc(-c3ccccc3)cnc2N)cc(OC)c1OC` [382_0087_0061, 5-phenyl-3-(3,4,5-trimethoxy-phenyl)pyridin-2-amine] the value was 893 nM.
For `COc1cc(-c2cc(-c3ccccc3Oc3ccccc3)cnc2N)cc(OC)c1OC` [382_0087_0063, 5-(2-phenoxyphenyl)-3-(3,4,5-trimethoxy-phenyl)pyridin-2-amine] the value was 9010 nM.
In the case of `COc1cc(-c2cc(-c3cc4ccccc4s3)cnc2N)cc(OC)c1OC` [382_0087_0076, 5-(benzothiophen-2-yl)-3-(3,4,5-trimethoxyphenyl) pyridin-2-amine] it was 2690 nM.
Consider `COc1cc(-c2cc(-c3cccc(N(C)C)c3)cnc2N)cc(OC)c1OC` [382_0087_0135, 5-[3-(dimethyl-amino)phenyl]-3-(3,4,5-trimethoxyphenyl) pyridin-2-amine], for which the IC50 turned out to be 595 nM.
On to `COc1cc(-c2cc(-c3cccc(C(=O)NCCO)c3)cnc2N)cc(OC)c1OC` [382_0087_0192, 3-[6-amino-5-(3,4,5-trimethoxy-phenyl)-3-pyridyl]-N-(2-hydroxyethyl) benzamide], for which the IC50 was 485 nM.
For `COc1cc(-c2cc(-c3ccc(N4CCN(C)CC4)cc3)cnc2N)cc(OC)c1OC` [382_0087_0218, 5-[4-(4-methylpiperazin-1-yl)phenyl]-3-(3,4,5-trimethoxyphenyl)pyridin-2-amine] the value was 322 nM; for `COc1ccc(-c2cnc(N)c(-c3cc(OC)c(OC)c(OC)c3)c2)cc1` [382_0087_0280, 5-(4-methoxyphenyl)-3-(3,4,5-trimethoxy-phenyl)pyridin-2-amine], 2980 nM; for `COc1cc(-c2cc(-c3cccc(O)c3)cnc2N)cc(OC)c1OC` [382_0087_0284, 3-[6-amino-5-(3,4,5-trimethoxy-phenyl)-3-pyridyl]phenol], 723 nM.

The record behind these values is patent US10688093B2, “Methods, compositions, and uses of novel Fyn kinase inhibitors” (priority 2015, dated 2020).
